The values below are quoted from earlier work in patent US20130309325A1, “COMPOSITION AND METHOD FOR PROMOTING JOINT AND BONE HEALTH” (VITAL ANIMAL HEALTH, LLC, priority 2012, published 2013).

The subject of the data set is young racing quarter horses.
Setting [1] is: horses with increased plasma silicon concentrations.

For silicon, under setting [1], the average race times result is “faster average race times”, the “distance covered before injury” value is given as “covered more distance before injury” and the “strides completed before injury” value is given as “completed more strides before injury”. The “incidence of bone related injuries” value (supplemental silicon, young racing quarter horses) is “decreased the incidence of bone related injuries”.
